The values below are quoted from earlier work in publication PMC11206399, “In Vitro/In Vivo Correlation of Two Extended-Release Cilostazol Formulations” (Pharmaceuticals, 2024).

The structures appear in SMILES notation. Converted amounts (≈) assume the structure as drawn.

Details of data set [1]: method as in PMID 10702883. The following applies: humans, oral 100 mg Cilostazol tablet.
On the set-up of data set [2]: method as in PMID 4074422.
The next data set relates to Caco-2 cell monolayer. Also noted: method as in PMID 14603510. The following applies: Caco-2 cell monolayer model.
A further data set relates to platelet aggregation. Also on record: method as in doi:10.1111/j.1527-3466.1993.tb00200.x.

Turning to `O=C1CCc2cc(OCCCCc3nnnn3C3CCCCC3)ccc2N1` [Cilostazol], in data set [1], the “increase of AUC of Cilostazol with high-fat breakfast compared with the fasted condition” value was 25% and the “increase of Cmax of Cilostazol with high-fat breakfast compared with the fasted condition” value is 90%. The water solubility in data set [2] is on record as 3.34 µg/mL (≈ 9.04 µM). In addition, in the data set with Caco-2 cell monolayer, the permeability coefficient entry is recorded as “above 1 × 10^−6 cm/s”.

With `O=c1ccc2cc(OCCCCc3nnnn3C3CCCCC3)ccc2[nH]1` [OPC-13015, 3,4-dehydrocilostazol], the “potency of inhibiting platelet aggregation compared with cilostazol” value with platelet aggregation is 3 fold.

Regarding `O=C1CCc2cc(OCCCCc3nnnn3[C@H]3CC[C@H](O)CC3)ccc2N1` [OPC-13213, 4′-trans-hydroxy-cilostazol], in the data set on platelet aggregation, the “fold less potent than Cilostazol (inhibiting platelet aggregation)” value is 3 fold.
